The NIST ThermoML archive (doi:10.1016/j.jct.2008.02.019)

Legend:
[1] = excess molar enthalpy (molar enthalpy of mixing); xn = mol fraction of the nth substance listed; conditions: 101 kPa, Liquid, Flow calorimetry
[2] = xn = mol fraction of the nth substance listed; conditions: 101 kPa, Liquid

CCCC[n+]1ccc(C)cc1.F[B-](F)(F)F [1-butyl-4-methylpyridinium tetrafluoroborate] + CO
Conditions	excess molar enthalpy [kcal/mol]	mass density [kg/m3]
[1], 298.15 K, x1 = 0.0155	0.0607	–
[1], 298.15 K, x1 = 0.0359	0.116	–
[1], 298.15 K, x1 = 0.0582	0.159	–
[1], 298.15 K, x1 = 0.0832	0.217	–
[1], 298.15 K, x1 = 0.1111	0.27	–
[1], 298.15 K, x1 = 0.1397	0.329	–
[1], 298.15 K, x1 = 0.1698	0.377	–
[1], 298.15 K, x1 = 0.1711	0.392	–
[1], 298.15 K, x1 = 0.1953	0.415	–
[1], 298.15 K, x1 = 0.2214	0.435	–
[1], 298.15 K, x1 = 0.2412	0.453	–
[1], 298.15 K, x1 = 0.2755	0.469	–
[1], 298.15 K, x1 = 0.3109	0.48	–
[1], 298.15 K, x1 = 0.3617	0.475	–
[1], 298.15 K, x1 = 0.427	0.453	–
[1], 298.15 K, x1 = 0.507	0.411	–
[1], 298.15 K, x1 = 0.6029	0.35	–
[1], 298.15 K, x1 = 0.7161	0.272	–
[1], 298.15 K, x1 = 0.8469	0.154	–
[1], 318.2 K, x1 = 0.0102	0.0337	–
[1], 318.21 K, x1 = 0.0238	0.0662	–
[1], 318.22 K, x1 = 0.0405	0.098	–
[1], 318.23 K, x1 = 0.0635	0.178	–
[1], 318.24 K, x1 = 0.0898	0.261	–
[1], 318.25 K, x1 = 0.1174	0.336	–
[1], 318.26 K, x1 = 0.1476	0.403	–
[1], 318.27 K, x1 = 0.1778	0.457	–
[1], 318.28 K, x1 = 0.1969	0.498	–
[1], 318.29 K, x1 = 0.2103	0.529	–
[1], 318.3 K, x1 = 0.2392	0.559	–
[1], 318.31 K, x1 = 0.2699	0.579	–
[1], 318.32 K, x1 = 0.3021	0.603	–
[1], 318.33 K, x1 = 0.3442	0.61	–
[1], 318.34 K, x1 = 0.3846	0.619	–
[1], 318.35 K, x1 = 0.4397	0.614	–
[1], 318.36 K, x1 = 0.4968	0.595	–
[1], 318.37 K, x1 = 0.5563	0.57	–
[1], 318.38 K, x1 = 0.6281	0.533	–
[1], 318.39 K, x1 = 0.7109	0.466	–
[1], 318.4 K, x1 = 0.8042	0.362	–
[1], 318.41 K, x1 = 0.8793	0.239	–
[1], 318.42 K, x1 = 0.9607	0.0937	–
[2], 298.15 K, x1 = 0.0539	–	880.6
[2], 298.15 K, x1 = 0.0819	–	916.2
[2], 298.15 K, x1 = 0.095	–	931.5
[2], 298.15 K, x1 = 0.1078	–	944.4
[2], 298.15 K, x1 = 0.1549	–	984.7
[2], 298.15 K, x1 = 0.2038	–	1017.3
[2], 298.15 K, x1 = 0.3016	–	1064.3
[2], 298.15 K, x1 = 0.3729	–	1088.5
[2], 298.15 K, x1 = 0.4548	–	1110.8
[2], 298.15 K, x1 = 0.5027	–	1120.9
[2], 298.15 K, x1 = 0.5533	–	1131.2
[2], 298.15 K, x1 = 0.6076	–	1140.4
[2], 298.15 K, x1 = 0.7174	–	1155.8
[2], 298.15 K, x1 = 0.8053	–	1165.6
[2], 298.15 K, x1 = 0.9129	–	1176
[2], 318.15 K, x1 = 0.0489	–	855.9
[2], 318.15 K, x1 = 0.096	–	915.9
[2], 318.15 K, x1 = 0.1439	–	961.3
[2], 318.15 K, x1 = 0.1894	–	994.2
[2], 318.15 K, x1 = 0.3003	–	1049.4
[2], 318.15 K, x1 = 0.3551	–	1068.5
[2], 318.15 K, x1 = 0.4349	–	1091.7
[2], 318.15 K, x1 = 0.4888	–	1103.9
[2], 318.15 K, x1 = 0.5342	–	1112.7
[2], 318.15 K, x1 = 0.5959	–	1123.9
[2], 318.15 K, x1 = 0.6592	–	1133.5
[2], 318.15 K, x1 = 0.7266	–	1142.3
[2], 318.15 K, x1 = 0.8378	–	1154.8
[2], 318.15 K, x1 = 0.9046	–	1161.4
